Measured values published in patent US20180370927A1, “MICROBIOCIDAL OXADIAZOLE DERIVATIVES” (SYNGENTA PARTICIPATIONS AG, priority 2015, published 2018).

Legend:
[1] = test system: Puccinia recondita f. Sp. Tritici; test: Puccinia recondita f. sp. tritici / wheat / leaf disc preventative (brown rust); type: in vivo; conditions: foliar, 200 ppm in the applied formulation, wheat leaf segments, preventative, assessed 7 to 9 days after application, read-out: disease control compared to untreated control leaf disks
In short: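 Wheat cv. Kanzler leaf segments on agar sprayed with formulated compound in water, inoculated with rust spores 1 day later. Incubated at 19° C, 75% rh, 12 h light/12 h dark; percent disease control versus untreated scored 7 to 9 days after application; tested at 200 ppm.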

[2] = test system: Puccinia recondita f. Sp. Tritici; test: Puccinia recondita f. sp. tritici / wheat / leaf disc curative (brown rust); type: in vivo; conditions: foliar, 200 ppm in the applied formulation, wheat leaf segments, curative (applied 1 day after inoculation), assessed 6 to 8 days after application, read-out: disease control compared to untreated control leaf disks
In short: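 Curative treatment: formulated compound in water was applied 1 day post-inoculation to spore-inoculated wheat cv. Kanzler segments held on agar. Segments stayed at 19° C and 75% relative humidity (12 h photoperiod after application), and disease control relative to untreated checks was assessed 6 to 8 days later.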

[3] = test system: Glomerella lacenarium (Colletotrichum lacenarium); test: Glomerella lacenarium (Colletotrichum lacenarium) liquid culture / cucumber / preventative (anthracnose); type: cell-based; conditions: 20 ppm in the applied formulation, liquid culture in PDB, 24° C., 3 to 4 days after application, read-out: disease control (inhibition of growth, photometric) compared to untreated control
In short: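 At 20 ppm in the applied formulation, compounds were mixed with fungal spores in potato dextrose broth and held at 24° C. After 3–4 days, photometric growth measurement gave percent antifungal activity relative to untreated control.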

Phakopsora pachyrhizi = Phakopsora pachyrhizi / soybean / leaf disc preventative (Asian soybean rust); type: in vivo; conditions: foliar, 200 ppm in the applied formulation, soybean leaf disks, assessed 12 to 14 days after application, read-out: disease control compared to untreated control leaf disks
In short: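 Soybean leaf discs on water agar were sprayed with formulated compound diluted in water, then inoculated one day later with spore suspension on the lower leaf surface. Held 24-36 h dark at 20° C., 75% RH, then 12 h light/day; percent disease control versus untreated scored 12 to 14 days after application.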

CON(Cc1ccc(-c2noc(C(F)(F)F)n2)cc1F)C(=O)C(=O)N(C)C [Compound 4.95, N′-[[2-fluoro-4-[5-(trifluoromethyl)-1,2,4-oxadiazol-3-yl]phenyl]methyl]-N′-methoxy-N,N-dimethyl-oxamide]
≥ 80%: pest or weed control at 200 ppm [1] | pest or weed control at 200 ppm [2] | inhibition at 20 ppm [3] | pest or weed control at 200 ppm (Phakopsora pachyrhizi)

CON(Cc1ccc(-c2noc(C(F)(F)F)n2)cc1F)C(=O)C(=O)c1ccco1 [Compound 1.83, N-[[2-fluoro-4-[5-(trifluoromethyl)-1,2,4-oxadiazol-3-yl]phenyl]methyl]-2-(2-furyl)-N-methoxy-2-oxo-acetamide]
≥ 80%: pest or weed control at 200 ppm [1] | pest or weed control at 200 ppm [2] | inhibition at 20 ppm [3] | pest or weed control at 200 ppm (Phakopsora pachyrhizi)

CCC(=O)C(=O)NCc1ccc(-c2noc(C(F)(F)F)n2)c(F)c1F [Compound 1.80, N-[[2,3-difluoro-4-[5-(trifluoromethyl)-1,2,4-oxadiazol-3-yl]phenyl]methyl]-2-oxo-butanamide]
≥ 80%: pest or weed control at 200 ppm [1] | pest or weed control at 200 ppm [2] | inhibition at 20 ppm [3] | pest or weed control at 200 ppm (Phakopsora pachyrhizi)

CCCC(=O)C(=O)N(Cc1ccc(-c2noc(C(F)(F)F)n2)cc1)C1CC1 [Compound 1.4, N-cyclopropyl-2-oxo-N-[[4-[5-(trifluoromethyl)-1,2,4-oxadiazol-3-yl]phenyl]methyl]pentanamide]
≥ 80%: pest or weed control at 200 ppm [1] | pest or weed control at 200 ppm [2] | inhibition at 20 ppm [3] | pest or weed control at 200 ppm (Phakopsora pachyrhizi)

CCC(=O)C(=O)NCc1ccc(-c2noc(C(F)(F)F)n2)c(F)c1 [Compound 1.78, N-[[3-fluoro-4-[5-(trifluoromethyl)-1,2,4-oxadiazol-3-yl]phenyl]methyl]-2-oxo-butanamide]
≥ 80%: pest or weed control at 200 ppm [1] | pest or weed control at 200 ppm [2] | inhibition at 20 ppm [3] | pest or weed control at 200 ppm (Phakopsora pachyrhizi)

CCONC(=O)C(=O)NCc1ccc(-c2noc(C(F)(F)F)n2)cc1 [Compound 4.55, N′-ethoxy-N-[[4-[5-(trifluoromethyl)-1,2,4-oxadiazol-3-yl]phenyl]methyl] oxamide]
≥ 80%: pest or weed control at 200 ppm [1] | pest or weed control at 200 ppm [2] | inhibition at 20 ppm [3] | pest or weed control at 200 ppm (Phakopsora pachyrhizi)

CCC(=O)C(=O)N(CCO)Cc1ccc(-c2noc(C(F)(F)F)n2)cc1 [Compound 1.33, N-(2-hydroxyethyl)-2-oxo-N-[[4-[5-(trifluoromethyl)-1,2,4-oxadiazol-3-yl]phenyl]methyl]butanamide]
≥ 80%: pest or weed control at 200 ppm [1] | pest or weed control at 200 ppm [2] | inhibition at 20 ppm [3] | pest or weed control at 200 ppm (Phakopsora pachyrhizi)

CCON(Cc1ccc(-c2noc(C(F)(F)F)n2)cc1)C(=O)C(N)=O [Compound 4.86, N′-ethoxy-N′-[[4-[5-(trifluoromethyl)-1,2,4-oxadiazol-3-yl]phenyl]methyl] oxarnide]
≥ 80%: pest or weed control at 200 ppm [1] | pest or weed control at 200 ppm [2] | inhibition at 20 ppm [3] | pest or weed control at 200 ppm (Phakopsora pachyrhizi)

CCN(Cc1ccc(-c2noc(C(F)(F)F)n2)cc1)C(=O)C(=O)N(C)OC [Compound 4.106, N′-ethyl-N-methoxy-N-methyl-N′-[[4-[5-(trifluoromethyl)-1,2,4-oxadiazol-3-yl]phenyl]methyl] oxamide]
≥ 80%: pest or weed control at 200 ppm [1] | pest or weed control at 200 ppm [2] | inhibition at 20 ppm [3] | pest or weed control at 200 ppm (Phakopsora pachyrhizi)

CCCC(=O)C(=O)N(C)Cc1ccc(-c2noc(C(F)(F)F)n2)cc1 [Compound 1.21, N-methyl-2-oxo-N-[[4-[5-(trifluoromethyl)-1,2,4-oxadiazol-3-yl]phenyl]methyl]pentanamide]
≥ 80%: pest or weed control at 200 ppm [1] | pest or weed control at 200 ppm [2] | inhibition at 20 ppm [3] | pest or weed control at 200 ppm (Phakopsora pachyrhizi)

CC(C)N(Cc1ccc(-c2noc(C(F)(F)F)n2)cc1)C(=O)C(N)=O [Compound 4.89, N′-isopropyl-N′-[[4-[5-(trifluoromethyl)-1,2,4-oxadiazol-3-yl]phenyl]methyl] oxamide]
≥ 80%: pest or weed control at 200 ppm [1] | pest or weed control at 200 ppm [2] | inhibition at 20 ppm [3] | pest or weed control at 200 ppm (Phakopsora pachyrhizi)

CON(Cc1ccc(-c2noc(C(F)(F)F)n2)cc1)C(=O)C(=O)C(C)(C)C [Compound 1.74, N-methoxy-3,3-dimethyl-2-oxo-N-[[4-[5-(trifluoromethyl)-1,2,4-oxadiazol-3-yl]phenyl]methyl]butanamide]
≥ 80%: pest or weed control at 200 ppm [1] | pest or weed control at 200 ppm [2] | inhibition at 20 ppm [3] | pest or weed control at 200 ppm (Phakopsora pachyrhizi)

CCC(=O)C(=O)NCc1ccc(-c2noc(C(F)(F)F)n2)cc1F [Compound 1.41, N-[[2-fluoro-4-[5-(trifluoromethyl)-1,2,4-oxadiazol-3-yl]phenyl]methyl]-2-oxo-butanamide]
≥ 80%: pest or weed control at 200 ppm [1] | pest or weed control at 200 ppm [2] | inhibition at 20 ppm [3] | pest or weed control at 200 ppm (Phakopsora pachyrhizi)

CON(Cc1ccc(-c2noc(C(F)(F)F)n2)cc1)C(=O)C(=O)c1ccccc1 [Compound 1.76, N-methoxy-2-oxo-phenyl-N-[[4-[5-(trifluoromethyl)-1,2,4-oxadiazol-3-yl]phenyl]methyl]acetamide]
≥ 80%: pest or weed control at 200 ppm [1] | pest or weed control at 200 ppm [2] | inhibition at 20 ppm [3] | pest or weed control at 200 ppm (Phakopsora pachyrhizi)

CCCC(=O)C(=O)N(CC)Cc1ccc(-c2noc(C(F)(F)F)n2)cc1 [Compound 1.19, N-ethyl-2-oxo-N-[[4-[5-(trifluoromethyl)-1,2,4-oxadiazol-3-yl]phenyl]methyl]pentanamide]
≥ 80%: pest or weed control at 200 ppm [1] | pest or weed control at 200 ppm [2] | inhibition at 20 ppm [3] | pest or weed control at 200 ppm (Phakopsora pachyrhizi)

CON(Cc1ccc(-c2noc(C(F)(F)F)n2)cc1)C(=O)C(=O)N(C)C [Compound 4.39, N′-methoxy-N,N-dimethyl-N′-[[4-[5-(trifluoromethyl)-1,2,4-oxadiazol-3-yl]phenyl]methyl] oxamide]
≥ 80%: pest or weed control at 200 ppm [1] | pest or weed control at 200 ppm [2] | inhibition at 20 ppm [3] | pest or weed control at 200 ppm (Phakopsora pachyrhizi)

CN(Cc1ccc(-c2noc(C(F)(F)F)n2)cc1)C(=O)C(=O)C1CC1 [Compound 1.94, 2-cyclopropyl-N-methyl-2-oxo-N-[[4-[5-(trifluoromethyl)-1,2,4-oxadiazol-3-yl]phenyl]methyl]acetamide]
≥ 80%: pest or weed control at 200 ppm [1] | pest or weed control at 200 ppm [2] | inhibition at 20 ppm [3] | pest or weed control at 200 ppm (Phakopsora pachyrhizi)

O=C(NCc1ccc(-c2noc(C(F)(F)F)n2)cc1)C(=O)N1CCOCC1 [Compound 4.59, 2-morpholino-2-oxo-N-[[4-[5-(trifluoromethyl)-1,2,4-oxadiazol-3-yl]phenyl]methyl] acetamide]
≥ 80%: pest or weed control at 200 ppm [1] | pest or weed control at 200 ppm [2] | inhibition at 20 ppm [3] | pest or weed control at 200 ppm (Phakopsora pachyrhizi)

O=C(C(=O)N(Cc1ccc(-c2noc(C(F)(F)F)n2)cc1)C1CC1)C1CC1 [Compound 1.92, N,2-dicyclopropyl-2-oxo-N-[[4-[5-(trifluoromethyl)-1,2,4-oxadiazol-3-yl]phenyl]methyl]acetamide]
≥ 80%: pest or weed control at 200 ppm [1] | pest or weed control at 200 ppm [2] | inhibition at 20 ppm [3] | pest or weed control at 200 ppm (Phakopsora pachyrhizi)

O=C(NCc1ccc(-c2noc(C(F)(F)F)n2)cc1)C(=O)c1ccccc1 [Compound 1.75, 2-oxo-2-phenyl-N-[[4-[5-(trifluoromethyl)-1,2,4-oxadiazol-3-yl]phenyl]methyl]acetamide]
≥ 80%: pest or weed control at 200 ppm [1] | pest or weed control at 200 ppm [2] | inhibition at 20 ppm [3] | pest or weed control at 200 ppm (Phakopsora pachyrhizi)

CCC(=O)C(=O)N(Cc1ccc(-c2noc(C(F)(F)F)n2)cc1)OC [Compound 1.89, N-methoxy-2-oxo-N-[[4-[5-(trifluoromethyl)-1,2,4-oxadiazol-3-yl]phenyl]methyl]butanamide]
≥ 80%: pest or weed control at 200 ppm [1] | pest or weed control at 200 ppm [2] | inhibition at 20 ppm [3] | pest or weed control at 200 ppm (Phakopsora pachyrhizi)

CC(C)(C)NC(=O)C(=O)NCc1ccc(-c2noc(C(F)(F)F)n2)cc1 [Compound 4.56, N′-tert-butyl-N-[[4-[5-(trifluoromethyl)-1,2,4-oxadiazol-3-yl]phenyl]methyl] oxamide]
≥ 80%: pest or weed control at 200 ppm [1] | pest or weed control at 200 ppm [2] | inhibition at 20 ppm [3] | pest or weed control at 200 ppm (Phakopsora pachyrhizi)

NC(=O)C(=O)N(O)Cc1ccc(-c2noc(C(F)(F)F)n2)cc1 [Compound 4.91, N′-hydroxy-N′-[[4-[5-(trifluoromethyl)-1,2,4-oxadiazol-3-yl]phenyl]methyl] oxamide]
≥ 80%: pest or weed control at 200 ppm [1] | pest or weed control at 200 ppm [2] | inhibition at 20 ppm [3] | pest or weed control at 200 ppm (Phakopsora pachyrhizi)
